Like-named read-outs stand apart in the source and are kept apart here.

Usually melting point stands for the temperature, or range, at which the solid turns liquid.

The test system of data set [1] is Aβ secretion. Kind of data set: PKC inhibitors experiment on Aβ secretion. The data set is classed as cell-based, human. As to conditions: for effect on basal Aβ secretion: PKC inhibitor alone; for effect of PKC inhibitor on compound 1 inhibited Aβ secretion: inhibitor given 30 min prior to compound 1. Here is the method:
(§1) H4βAPP695 wt cells, a human […] cell line stably transfected with a wtβAPP695 expression vector construct under the control of a CMV promoter (kindly provided by Dr. Chris Eckman from Mayo Clinic, Florida) were cultured as previously described. Twenty-four hours before drug treatment, the media was replaced with serum-free media. Cells were then incubated with drugs (dissolved in DMSO) or vehicle for 24 h for collection of conditioned media and cell lysates. For the PKC inhibitors experiment, three inhibitors were treated 30 min prior to drug challenge. Primary cortical neurons were prepared from embryonic day 18 APP and presenilin 1 (APPswe, PSEN1dE9) transgenic mice on the C57BL/6 genetic background (Jackson Laboratories, strain no. 5864) as previously described. THLE-3 human hepatoma cells (from ATCC) were plated in 24-well plates that were precoated with 10 μg/mL bovine serum albumin, 10 μg/mL fibronectin, and 30 μg/mL bovine type I collagen. The cells were grown in BEGM media (Clonetics) until confluent and treated with drugs at 20 μM for 24 h. This conditioned media was harvested, diluted 1:1 in serum-free medium, and incubated with H4βAPP695 wt cells for 24 h prior to analysis of secreted Aβ, which was compared to the effect of 10 μM drug treatments without prior incubation with the THLE-3 cells. Caco-2 cells (ATCC) were plated in 12-well plates with Transwell inserts (Costar) at 70000 cells per well and grown for 21 days. The media volume of the apical and basal chambers was 0.5 and 1.5 mL, respectively. Transepithelial resistance was measured in each well and found to be >160 Ω/cm^2. Drugs at 40 μM and 20 μg/mL of lucifer yellow were added in serum-free medium to the apical chamber. Four hours later, the basal chamber media was harvested and used to measure lucifer yellow fluorescence to confirm monolayer integrity as well as for treatment of H4βAPP695 wt cells for 24 h prior to analysis of secreted Aβ, which was compared to the effect of direct addition of 10 μM of the corresponding drug.
The tumor promoter phorbal myristate acetate is an activator of protein kinase C (PKC) that has been reported to activate α-secretase activity. Thus, we wanted to determine if protein kinase C inhibitors could block the effect of compound 1 on Aβ secretion.

For data set [2], the system named is Aβ secretion. Kind of data set: Secreted total Aβ ELISA in conditioned media of H4βAPP695 wt cells. It counts as cell-based, human. The following applies: for inhibition at 10 µM / inhibition at 30 µM: Homo sapiens, 24 h, H4βAPP695 wt cells; for inhibition at 10 µM: read-out: Total Aβ (% decrease) 10 μM Mean; for inhibition at 30 µM: read-out: Total Aβ (% decrease) 30 μM Mean; for Aβ secretion inhibiting activity (structure activity summary): in words. Summed up:
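H4 […] cells stably expressing wild-type βAPP695 (CMV promoter), serum-starved 24 h, then exposed to drug in DMSO or vehicle for 24 h before Aβ in conditioned media was measured. Primary cortical neurons came from E18 APPswe/PSEN1dE9 mice on C57BL/6 background.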

The subject of data set [3] is H4βAPP695 wt cells. The following applies: human, 24 h.
Data set [4] has as its system THLE-3 human hepatoma cells. As to the kind of experiment: Drug activity persistence after incubation with THLE-3 hepatoma cells. The data set is classed as in vitro ADME. The following applies: for inhibition at 10 µM: Homo sapiens, THLE3, 24 h; for % remaining Activity: after 24 h incubation with hepatoma cells. As to the method:
as §1
To screen for resistance to metabolism, 1 and eight noncytotoxic analogues with >50% Aβ reducing activity (compounds 27, 29, 48, 52, 53, 65, 73, and 76) were incubated at 20 μM for 24 h with or without THLE-3 human hepatoma cells.

Another data set deals with Caco-2 cells. Kind of data set: Epithelial transcellular transport of drug activity through Caco-2 monolayers. It counts as in vitro ADME. The following applies: for % theoretical activity: % of activity passing through Caco-2 monolayer; for inhibition at 10 µM / inhibition at up to 10 µM: Homo sapiens; for inhibition at 10 µM: Caco-2, 10 μM drug alone added directly to H4βAPP695 wt cells, read-out: transcellular transport No total Aβ (% decrease); for inhibition at up to 10 µM: Caco-2, 4 h, lower chamber media after 4 h on Caco-2 monolayer, 10 μM if in equilibrium, read-out: transcellular transport Yes total Aβ (% decrease). Here is the method: as §1
Monolayer integrity was confirmed by high levels of transcellular electrical resistance (>160 ohms/cm^2) and by transcellular impermeability to the fluorescent dye lucifer yellow. […] The concentration of each compound added to the upper chamber would lead to 10 μM in the lower chamber if equilibration was complete, and thus the activity of the lower chamber media was compared to the activity of 10 μM drug added directly to the H4βAPP695 wt cells. […] Compound 1 crossed the monolayer and the bottom chamber media led to a 27% reduction in Aβ production, yielding 38% of the theoretical activity. The compound with the most activity in the lower chamber was compound 48, which decreased Aβ production by 50%, with 71% of its theoretical activity. […] On the basis of the combined activity data from these last two studies, compound 48 was selected as the lead drug for in vivo study.
On the technique in general: Caco-2 monolayers are a common model of the intestinal barrier.

Data set [5] deals with H4βAPP695 wt cells. As to the kind of experiment: Cytotoxicity by total cell protein content (BCA) of H4βAPP695 wt cells. As to conditions: cytotoxicity.
Where [6] appears, read: 10 μM on H4 cells, without preincubation with hepatoma cells, read-out: hepatoma incubation No total Aβ (% decrease).
Where [7] appears, read: 20 μM preincubated 24 h with THLE-3 hepatoma cells, diluted to 10 μM on H4 cells, read-out: hepatoma incubation Yes total Aβ (% decrease).

In the case of `CN(C)CCCn1cc(C2=C(c3c[nH]c4ccccc34)C(=O)NC2=O)c2ccccc21` [Bisindolylmaleimide I], in the data set with Aβ secretion [1], the “effect on basal Aβ secretion” value was “no effect” and the “effect of PKC inhibitor on compound 1 inhibited Aβ secretion” value (“effect of PKC inhibitor” for short) was “no effect”.
For `CC(=O)c1c(O)c(C)c(O)c(Cc2c(O)c3c(c(C(=O)/C=C/c4ccccc4)c2O)OC(C)(C)C=C3)c1O` [Rottlerin], in the data set with Aβ secretion [1], the “effect on basal Aβ secretion” value was “reduced Aβ secretion” and the “effect of PKC inhibitor” value is recorded as “did not significantly alter the effect of compound 1”.
In turn, `COc1cccc(CSCCNC(=O)c2c([N+](=O)[O-])cccc2[N+](=O)[O-])c1` [Compound 37, N-[2-(3-Methoxy-benzylsulfanyl)-ethyl]-2,6-dinitro-benzamide] returned a melting point of 69 to 71 °C. In the data set with Aβ secretion [2], the inhibition at 10 µM was -14.1%, the inhibition at 30 µM is -2.8% and the “Aβ secretion inhibiting activity (structure activity summary)” value (from here on “Aβ secretion inhibiting activity”) was “not well tolerated”. In the data set on H4βAPP695 wt cells [3], the “Cell protein (% decrease) 10 μM Mean” value came out at 3.7% and the “Cell protein (% decrease) 30 μM Mean” value was −3.8%.
`COc1cc(Cl)cc(CSCCNC(=O)c2c(Cl)cccc2Cl)c1` [Compound 73, 2,6-Dichloro-N-[2-(3-chloro-5-methoxy-benzylsulfanyl)-ethyl]-benzamide] gave a melting point of 83 to 84 °C. Also, the inhibition at 10 µM in data set [4] (setting [6]) worked out at 67.7%. Moreover, the inhibition at 10 µM in data set [4] (setting [7]) is 33.5%. For the same molecule, in data set [4], the “% remaining Activity” value is given as 49%. In the data set with Aβ secretion [2], the inhibition at 10 µM is above 50%, the inhibition at 30 µM came to 81% and the “Aβ secretion inhibiting activity” value is listed as “could be tolerated”. Besides, in the data set with Caco-2 cells, the “% theoretical activity” value is reported as 4.0%, the inhibition at 10 µM was 67.7% and the inhibition at up to 10 µM is 2.7%. For the same molecule, in the data set on H4βAPP695 wt cells [5], the “Cell protein (% decrease) 10 μM Mean” value was 0.9% and the “Cell protein (% decrease) 30 μM Mean” value is on record as 0.4%.
`O=C(NCCSCc1cccc(I)c1)c1c(Cl)cccc1Cl` [Compound 53, 2,6-Dichloro-N-[2-(3-iodo-benzylsulfanyl)-ethyl]-benzamide]: the melting point lay within 75 to 78 °C. In addition, the “hepatoma incubation Yes total Aβ (% decrease)” value in data set [4] (20 μM preincubated 24 h with THLE-3 hepatoma cells, diluted to 10 μM on H4 cells) is listed as 40.0%. Besides, the inhibition at 10 µM in data set [4] (setting [6]) is 84.4%. Moreover, in data set [4] (setting [7]), the inhibition at 10 µM is 40%. The “% remaining Activity” value in data set [4] stood at 47%. Moreover, in the data set with Aβ secretion [2], the inhibition at 30 µM worked out at 88.3% and the “Aβ secretion inhibiting activity” value was “good activity”. Further, in the data set with Caco-2 cells, the “% theoretical activity” value is reported as 1.3%, the inhibition at 10 µM is 84.4% and the inhibition at up to 10 µM worked out at 1%. Also, in the data set with H4βAPP695 wt cells [5], the “Cell protein (% decrease) 10 μM Mean” value was determined as 9.2% and the “Cell protein (% decrease) 30 μM Mean” value turned out to be 19%.
`O=C(NCCSCc1ccccc1Cl)c1c(Cl)cccc1Cl` [Compound 76, 2,6-Dichloro-N-[2-(2-chloro-benzylsulfanyl)-ethyl]-benzamide]: the melting point fell in the range of 110 to 112 °C. The inhibition at 10 µM in data set [4] (setting [6]) is 75.6%. In addition, the inhibition at 10 µM in data set [4] (setting [7]) was 49%. In addition, in data set [4], the “% remaining Activity” value is listed as 65%. Also, in the data set on Aβ secretion [2], the inhibition at 30 µM was found to be 80% and the “Aβ secretion inhibiting activity” value is given as “retained activity”. Also, in the data set with Caco-2 cells, the “% theoretical activity” value was determined as 41.8%, the inhibition at 10 µM was determined as 75.6% and the inhibition at up to 10 µM was found to be 32%. Also, in the data set on H4βAPP695 wt cells [5], the “Cell protein (% decrease) 10 μM Mean” value is −0.5% and the “Cell protein (% decrease) 30 μM Mean” value is given as −11%.
For the molecule Calphostin C, in the data set with Aβ secretion [1], the “effect on basal Aβ secretion” value was “no effect” and the “effect of PKC inhibitor” value is “no effect”.
In the case of `COc1cccc(CSCCNC(=O)c2c(Cl)cccc2Cl)c1OC` [Compound 52, 2,6-Dichloro-N-[2-(2,3-dimethoxy-benzylsulfanyl)-ethyl]-benzamide], the melting point is 108 to 110 °C. For the same molecule, the inhibition at 10 µM in data set [4] (setting [6]) came out at 57.8%. In data set [4] (setting [7]), the inhibition at 10 µM is 1.9%. Also, in the data set on Aβ secretion [2], the inhibition at 10 µM was above 50%, the inhibition at 30 µM amounted to 72.8% and the “Aβ secretion inhibiting activity” value is recorded as “could be tolerated”. Besides, in the data set on Caco-2 cells, the “% theoretical activity” value worked out at 45.9%, the inhibition at 10 µM was found to be 57.8% and the inhibition at up to 10 µM is 26.5%. Further, in the data set with H4βAPP695 wt cells [5], the “Cell protein (% decrease) 10 μM Mean” value was −0.1% and the “Cell protein (% decrease) 30 μM Mean” value is 8.7%.
As for `O=C(NCCSCc1ccccc1)c1c(Cl)cccc1Cl` [Compound 65, N-(2-Benzylsulfanyl-ethyl)-2,6-dichloro-benzamide], the melting point fell in the range of 96 to 97 °C. The inhibition at 10 µM in data set [4] (setting [6]) is 51.6%. Besides, the inhibition at 10 µM in data set [4] (setting [7]) worked out at 27%. In addition, the “% remaining Activity” value in data set [4] amounted to 52%. In the data set with Aβ secretion [2], the inhibition at 10 µM is above 50%, the inhibition at 30 µM stood at 58.6% and the “Aβ secretion inhibiting activity” value is listed as “retained activity”. Besides, in the data set on Caco-2 cells, the “% theoretical activity” value is listed as 60.1%, the inhibition at 10 µM came to 51.6% and the inhibition at up to 10 µM came out at 31%. In addition, in the data set on H4βAPP695 wt cells [5], the “Cell protein (% decrease) 10 μM Mean” value was −1.1% and the “Cell protein (% decrease) 30 μM Mean” value is recorded as −0.7%.
For the molecule `O=C(NCCSCc1cccc(Cl)c1)c1c([N+](=O)[O-])cccc1[N+](=O)[O-]` [Compound 56, N-[2-(3-Chloro-benzylsulfanyl)-ethyl]-2,6-dinitro-benzamide], the melting point lay in the range of 139 to 140 °C. In addition, in the data set on Aβ secretion [2], the inhibition at 10 µM amounted to 28.8%, the inhibition at 30 µM came to 52.9% and the “Aβ secretion inhibiting activity” value is given as “not well tolerated”. In the data set on H4βAPP695 wt cells [3], the “Cell protein (% decrease) 10 μM Mean” value is 0.1% and the “Cell protein (% decrease) 30 μM Mean” value is listed as 17.8%.
As for `COc1cccc(CSCCNC(=O)c2c(Cl)cccc2Cl)c1` [Compound 27, 2,6-dichloro-N-[2-(3-methoxy-benzylsulfanyl)-ethyl]-benzamide], the inhibition at 10 µM in data set [4] (setting [6]) was 60.6%. The inhibition at 10 µM in data set [4] (setting [7]) amounted to 22.2%. In addition, in data set [4], the “% remaining Activity” value worked out at 37%. In addition, in the data set with Aβ secretion [2], the inhibition at 10 µM was above 50%, the inhibition at 30 µM came out at 73.9% and the “Aβ secretion inhibiting activity” value is given as “good activity”. Also, in the data set on Caco-2 cells, the “% theoretical activity” value was 29.5%, the inhibition at 10 µM is 60.6% and the inhibition at up to 10 µM worked out at 17.9%. Moreover, in the data set with H4βAPP695 wt cells [5], the “Cell protein (% decrease) 10 μM Mean” value stood at 8.4% and the “Cell protein (% decrease) 30 μM Mean” value is 13.2%.

Source of the values: US20130158112A1, “COMPOSITIONS AND METHODS FOR INHIBITING BETA AMYLOID SECRETION” (priority 2011, published 2013).
